Measured values published in patent publication US9499493B2, “2,4-pyrimidinediamine compounds and their uses” (Rigel Pharmaceuticals, Inc., priority 2002, dated 2016).
Counter-ions that a name gives are not always drawn.

Legend:
[1] = test system: cultured human mast cells (CHMC); assay: CHMC low cell density IgE activation: tryptase assay; assay type: cell-based; settings: anti-IgE
Method in brief: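 Degranulation is read as supernatant tryptase activity, using tryptase substrate incubated 30 min at room temperature. Before this, CHMC at low density (1000-1500 cells/well) rest 1 hr at 37° C and are triggered with anti-IgE for 30 min at 37° C.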

[2] = test system: cultured human mast cells (CHMC); assay: CHMC low cell density ionomycin activation: tryptase assay; assay type: cell-based

Row | IC50 [1] | IC50 [2] | IC50 ([1]; HCl salt) | IC50 ([2]; HCl salt) | Structure (SMILES)
1 | 0.391 µM | > 10 µM |  |  | Cc1cc(Nc2nc(Nc3cccc(OCC(=O)N4CCNCC4)c3)ncc2F)cc(Cl)c1O [R945149, N4-(3-Chloro-4-hydroxy-5-methylphenyl)-5-fluoro-N2-[3-(N-piperazino)carbonylmethyleneoxyphenyl]-2,4-pyrimidinediamine]
2 | 10 µM | > 10 µM |  |  | CCOC(=O)c1cnc(Nc2cccc(OCC(=O)NC)c2)nc1Nc1cc(OC)cc(OC)c1 [R926801, N4-(3,5-Dimethoxyphenyl)-5-ethoxycarbonyl-N2-[3-(N-methylamino)carbonylmethyleneoxyphenyl]-2,4-pyrimidinediamine]
3 | 2.3 µM | > 10 µM |  |  | N#Cc1cnc(Nc2cccc(O)c2)nc1Nc1ccc(OCC(=O)NCC2CC2)cc1 [R925845, 5-Cyano-N4-[4-(N-cyclopropylmethylamino)carbonylmethyleneoxyphenyl]-N2-(3-hydroxyphenyl)-2,4-pyrimidinediamine]
4 | 1.41 µM | > 10 µM |  |  | CC(C)Oc1cccc(Nc2nc(Nc3ccc4oc(C(=O)N5CCOCC5)cc4c3)ncc2F)c1 [R926489, 5-Fluoro-N4-(3-isopropoxyphenyl)-N2-[2-(N-morpholino)carbonylbenzofuran-5-yl]-2,4-pyrimidinediamine]
5 | 1.71 µM | > 10 µM |  |  | CNC(=O)C(C)(C)Oc1cccc(Nc2ncc(F)c(Nc3ccc4c(c3)OCCO4)n2)c1 [R926915, N4-(3,4-Ethylenedioxyphenyl)-5-fluoro-N2-[3-[(N-methylamino)carbonyl-1,1-dimethylmethyleneoxy]phenyl]-2,4-pyrimidinediamine]
6 | 0.181 µM | 9.77 µM |  |  | CNC(=O)COc1cccc(Nc2ncc(F)c(Nc3ccc4c(c3)OCCCO4)n2)c1 [R935202, 5-Fluoro-N2-[3-(N-methylamino)carbonylmethyleneoxyphenyl]-N4-(3,4-propylenedioxyphenyl)-2,4-pyrimidinediamine]
7 | 1.39 µM | 6.81 µM |  |  | CCOC(=O)C(C)(C)c1ccc(Nc2nc(Nc3ccc4c(c3)OCCO4)ncc2F)cc1 [R935172]
8 |  |  | 0.285 µM | > 10 µM | CNC(=O)COc1cccc(Nc2ncc(F)c(Nc3cccc(N)c3)n2)c1 [R950262, N4-(3-Aminophenyl)-5-fluoro-N2-[3-(N-methylamino)carbonylmethyleneoxyphenyl]-2,4-pyrimidinediamine HCl salt]
9 | 1.97 µM | > 10 µM |  |  | O=C(CNc1cccc(Nc2ncc(F)c(Nc3cccc(NCCO)c3)n2)c1)NCCO [R950231, 5-Fluoro-N4-[3-(2-hydroxyethylamino)phenyl]-N2-[3-[N-(2-hydroxyethylamino)]carbonylmethyleneaminophenyl]-2,4-pyrimidinediamine]
10 | 0.337 µM | 7.08 µM |  |  | CC(C)c1cccc(Nc2nc(Nc3ccc4oc(CO)cc4c3)ncc2F)c1 [R940286, 5-Fluoro-N4-(3-isopropylphenyl)-N2-[(2-hydroxymethylene]benzofur-5-yl]-2,4-pyrimidinediamine]
11 | 1.33 µM | > 10 µM |  |  | NC(=O)COc1ccc(Nc2nc(Nc3ccc4c(c3)OCCO4)ncc2F)cc1 [R945171, N4-(4-Aminocarbonylmethyleneoxyphenyl)-N2-(3,4-ethylenedioxyphenyl)-5-fluoro-2,4-pyrimidinediamine]
12 | > 10 µM | > 10 µM |  |  | CNCCNC(=O)c1cc2cc(Nc3ncc(F)c(Nc4ccc5oc(C(=O)NCCNC)cc5c4)n3)ccc2o1 [R950170, N2,N4-Bis[2-[2-(methylamino)ethyleneaminocarbonyl]-benzofurane-5-yl]-5-fluoro-2,4-pyrimidinediamine]
13 | 0.986 µM | 8.25 µM |  |  | Cc1nc(COc2cccc(Nc3ncc(F)c(Nc4ccc5oc(C(N)=O)cc5c4)n3)c2)no1 [R945135, N4-(2-Aminocarbonylbenzofuran-5-yl)-5-fluoro-N2-[3-(5-methyl-1,2,4-oxadiazol-3-yl)methyleneoxyphenyl]-2,4-pyrimidinediamine]
14 | 8.9 µM | > 10 µM |  |  | C[C@H](Nc1nc(Nc2ccc3c(c2)OCCO3)ncc1F)[C@H](O)c1ccccc1 [R925766, N2-(3,4-Ethylendioxyphenyl)-5-fluoro-N4-[(2R)-hydroxy-(1S)-methyl-2-phenylethyl)-2,4-pyrimidinediamine]
15 | 2.35 µM | 5.87 µM |  |  | CCOC(=O)COc1cccc(Nc2ncc(C(=O)OCC)c(Nc3cccc(O)c3)n2)c1 [R926798, N4-(3-Hydroxyphenyl)-N2-(3-ethoxycarbonylmethyleneoxyphenyl)-5-ethoxycarbonyl-2,4-pyrimidinediamine]
16 | 1.1 µM | > 10 µM |  |  | Oc1cccc(Nc2nc(Nc3ccc(C(F)(F)F)c(Cl)c3)ncc2F)c1 [R926844, N2-(3-Chloro-4-trifluoromethylphenyl)-5-fluoro-N4-(3-hydroxyphenyl)-2,4-pyrimidinedimine]
17 | 2.85 µM | > 10 µM |  |  | COC(=O)Cn1ncc2cc(Nc3nc(Nc4ccc(OC(C)C)cc4)ncc3F)ccc21 [R935242, 5-Fluoro-N2-(4-isopropoxyphenyl)-N4-[1-(methoxycarbonyl)methyl-indazoline-5-yl]-2,4-pyrimidinediamine]

Row | IC50 [1] | IC50 [2] | IC50 ([1]; HCl salt) | IC50 ([2]; HCl salt) | Structure (SMILES)
18 | 7 µM | > 10 µM |  |  | CC(C)(C)c1cccc(Nc2nc(Nc3cccc(OCC(=O)O)c3)ncc2F)c1 [R940280, N4-(3-tert-Butylphenyl)-N2-[3-carboxymethyleneoxyphenyl]-5-fluoro-2,4-pyrimidinediamine]
19 | 0.952 µM | 2.13 µM |  |  | Fc1cnc(Nc2ccc(OCc3nc(-c4ccccc4)no3)cc2)nc1Nc1ccc2c(c1)OCCO2 [R935136, N4-(3,4-Ethylenedioxyphenyl)-5-fluoro-N2-[4-(3-phenyl-1,2,4-oxadiazol-5-yl)methyleneoxyphenyl]-2,4-pyrimidinediamine]
20 | 0.688 µM | > 10 µM |  |  | CNC(=O)COc1cc(Nc2ncc(F)c(Nc3ccc(C)c(O)c3)n2)ccc1C [R926759, 5-Fluoro-N4-(3-hydroxy-4-methylphenyl)-N2-[4-methyl-3-[(N-methylamino)carbonylmethyleneoxy]phenyl]-2,4-pyrimidinediamine]
21 | 7.33 µM | > 10 µM |  |  | CNC(=O)CCn1ncc2ccc(Nc3ncc(F)c(Nc4ccc5oc(C(=O)NC)cc5c4)n3)cc21 [R935297, 5-Fluoro-N4-[2-(N-methylaminocarbonyl)benzofuran-5-yl]-N2-[1-[2(N-methylaminocarbonyl)ethyl]-indazoline-6-yl]-2,4-pyrimidinediamine]
22 | 0.428 µM | > 10 µM |  |  | CNC(=O)COc1cccc(Nc2ncc(F)c(Nc3ccc(C(C)(C)C)cc3)n2)c1 [R926714, N4-(4-tert-Butylphenyl)-5-fluoro-N2-[3-(N-methylamino)carbonylmethyleneoxyphenyl]-2,4-pyrimidinediamine]
23 | 4.2 µM | > 10 µM |  |  | N#Cc1cnc(Nc2ccc(OCC(=O)N3CCCCC3)cc2)nc1Nc1ccc(OCC(=O)N2CCCCC2)cc1 [R925855, N2,N4-Bis[4-(N-piperidino)carbonylmethyleneoxyphenyl]-5-cyano-2,4-pyrimidinediamine]
24 | 0.082 µM | > 10 µM |  |  | Fc1cnc(Nc2ccc3cn[nH]c3c2)nc1Nc1ccc(OC(F)(F)F)c(Cl)c1 [R935368, N4-(3-Chloro-4-trifluoromethoxyphenyl)-5-fluoro-N2-(indazoline-6-yl)-2,4-pyrimidinediamine]
25 | 1.65 µM | > 10 µM |  |  | Cc1nc(COc2cccc(Nc3nc(Nc4ccc5c(c4)OCCO5)ncc3F)c2)no1 [R945137, N2-(3,4-Ethylenedioxyphenyl)-5-fluoro-N4-[3-(5-methyl-1,2,4-oxadiazol-3-yl)methyleneoxyphenyl]-2,4-pyrimidinediamine]
26 | 1.04 µM | > 10 µM |  |  | CCOC(=O)COc1cccc(Nc2ncc(F)c(Nc3ccc4c(c3)OCCO4)n2)c1 [R926482, N2-(3-Ethoxycarbonylmethyleneoxyphenyl)-N4-(3,4-ethylenedioxyphenyl)-5-fluoro-2,4-pyrimidinediamine]
27 | 0.373 µM | > 10 µM |  |  | Fc1cnc(Nc2ccc3[nH]ncc3c2)nc1Nc1ccc(Cl)cc1 [R935365, N4-(4-Chlorophenyl)-5-fluoro-N2-(indazoline-5-yl)-2,4-pyrimidinediamine]
28 | 1.27 µM | > 10 µM |  |  | CNC(=O)COc1cccc(Nc2ncc(F)c(Nc3ccc4c(c3)OCC(=O)N4)n2)c1 [R908700, N4-(1,4-Benzoxazine-3-on-7-yl)-5-fluoro-N2-((N-methylacetamido-2)-3-phenoxy)-2,4-pyrimidinediamine]
29 | 4.71 µM | > 10 µM |  |  | COC(=O)Cn1ncc2ccc(Nc3nc(Nc4ccc(OC(C)C)cc4)ncc3F)cc21 [R935218, 5-Fluoro-N2-(4-isopropoxyphenyl)-N4-[1-(methoxycarbonyl)methyl-indazoline-6-yl]-2,4-pyrimidinediamine]
30 | 1.13 µM | > 10 µM |  |  | CNC(=O)COc1cccc(Nc2ncc(F)c(Nc3cc(OC)cc(C(F)(F)F)c3)n2)c1 [R926833, 5-Fluoro-N4-(3-methoxy-5-trifluoromethylphenyl)-N2-[3-(N-methylamino)carbonylmethyleneoxyphenyl]-2,4-pyrimidinediamine]
31 | 0.12 µM | 2.7 µM |  |  | CC1(C)Oc2ccc(Nc3nc(Nc4ccc5c(c4)NC(=O)C(F)(F)O5)ncc3F)cc2NC1=O [R940351, N2-[(2,2-Difluoro-4H-benzo[1,4]oxazin-3-one)-6-yl]-N4-[(2,2-dimethyl-4H-benzo[1,4]oxazin-3-one)-6-yl]-5-fluoro-2,4-pyrimidinediamine]
32 | 1.57 µM | > 10 µM |  |  | Fc1cnc(Nc2ccc3oc(CN4CCOCC4)cc3c2)nc1Nc1ccc2c(c1)OCCO2 [R926490, N4-(3,4-Ethylenedioxyphenyl)-5-fluoro-N2-[2-(N-morpholinomethylene)benzofuran-5-yl]-2,4-pyrimidinediamine]
33 | 2.04 µM | > 10 µM |  |  | CN1CCN(C(=O)CNc2cccc(Nc3ncc(F)c(Nc4ccc5c(c4)OCCO5)n3)c2)CC1 [R950194, N4-(3,4-Ethylenedioxyphenyl)-5-fluoro-N2-[3-(N—(N-methyl)-piperazino)carbonylmethyleneaminophenyl]-2,4-pyrimidinediamine]
